Data on one compound can be found in US20090196950A1, “METHODS OF FEEDING PIGS AND PRODUCTS COMPRISING BENEFICIAL FATTY ACIDS” (Monsanto Company, priority 2008, published 2009).

The test in a line: 35 day feeding study in pigs: fatty acid composition of pork tissues (belly, loin, ham, skin) by GC-FID of FAMEs. In kind it is in vivo. Here is the method: A 35 day study was conducted to determine whether pigs fed a diet containing SDA could produce meat with improved fatty acid profiles including increased levels of SDA, EPA, and DHA.
A control diet (Treatment 1) formulated to meet or exceed NRC (1998) nutrient requirements for pigs in the late finishing phase (approximately 80-120 kg BW containing 1.14% corn oil and no added SDA ethyl ester (70% w/w SDA) were fed ad libitum during an acclimation period of at least 1 week duration. Ethoxyquin was included in all diets as an antioxidant at a concentration of 150 parts per million (0.015%, as-fed basis), the maximum level allowed by FDA regulation in animal feeds. The same control diet was fed ad libitum to the control pigs (pen receiving Treatment 1) throughout a 35-day test period. Four test diets (Treatment 2, 3, 4, and 5) with SDA ethyl ester substituted for corn oil to provide 0.2, 0.4, 0.6 and 0.8% (w/w SDA active ingredient, as-is basis) were fed ad libitum to one pen of four pigs throughout the 35-day test period Table 4). All diets were fed in meal form.
All pigs were individually weighed at initiation of the acclimation and test period, and immediately prior to slaughter. Feed consumption per pen was recorded. […] Live weights prior to slaughter and hot carcass weights were recorded. […] Prior to removing the sample for sensory and fatty and proximate analysis from the belly the firmness of the belly was evaluated using a flop test. At 24 hr postmortem fat thickness (10th rib), loin eye area (10th rib), visual color, firmness and marbling, Minolta color (L*a*b*), pH, and drip loss were measured. […]
In order to evaluate the fatty acid composition of pig tissues (loin, ham, skin, and belly), samples were stored at −80° C. until evaluation. […] Resultant fatty acid methyl esters (FAME's) were separated by capillary gas chromatography (GC) and detected by flame ionization detector (FID). […] Quantification was achieved by using an internal standard (c15:0 triacylglyceride (TAG) for pig tissue samples and c17:0 TAG for diet samples). […]

For the compound `CC/C=C\C/C=C\C/C=C\C/C=C\CCCCC(=O)O` [SDA, stearidonic acid], the “enrichment of SDA, ETA, and EPA in belly, loin, ham, and skin tissues” value (0.2-0.8% SDA in feed, 35 days) is “enriched in belly, loin, ham, and skin tissues in a dose dependent manner”. For the setting “SDA supplementation, 35 days”, the “levels of SDA, ETA, EPA, DPA in belly, loin, ham and skin tissues and DHA in ham tissue as compared to the control” value is “higher levels”. Besides, the “omega 3 fatty acid enrichment in belly, loin, ham and skin tissues as compared to the control” value (pigs fed SDA for the last 35 days prior to slaughter) was “significant increase”.
